# Patent publication US20020137929A1, “1 - (3-heterocyclylphenyl) isothiourea, -isourea, -guanidine and -amidine herbicidal agents” (Intellectual Property Department, BASF Aktiengesellschaft, priority 1998, published 2002)
# Experiments:
# AMBEL (Ragweed, Common) = assay: Postemergence herbicidal evaluation; assay type: in vivo, Ambrosia artemisifolia; settings: postemergence
# In short: (§1)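 Scores (0–9) reflect plant stand, vigor, malformation, size, chlorosis and general appearance relative to control, read 4 to 5 weeks after treatment and averaged where tests were repeated. Application: about 0.0156–0.500 kg/ha sprayed at 40 psi onto two-week seedlings.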
# CASOB (Sicklepod) [1] = assay: Postemergence herbicidal evaluation; assay type: in vivo, Cassia obtusifolia; settings: postemergence
# In short: as §1
# [2] = system: CHEAL (Lambsquarters, Common); assay: Postemergence herbicidal evaluation; assay type: in vivo, Chenopodium album; settings: postemergence
# In short: as §1
# GALAP (Galium) [3] = assay: Postemergence herbicidal evaluation; assay type: in vivo, Galium aparine; settings: postemergence
# In short: as §1
# ECHCG (Barnyardgrass) = assay: Postemergence herbicidal evaluation; assay type: in vivo, Echinochloa crus-galli; settings: postemergence
# In short: as §1
# SETVI (Foxtail, Green) = assay: Postemergence herbicidal evaluation; assay type: in vivo, Setaria viridis; settings: postemergence
# In short: as §1
# [4] = system: GLXMAW (Soybean, Williams); assay: Postemergence herbicidal evaluation; assay type: in vivo, Glycine max, (L.) Merr. cv Williams; settings: postemergence
# In short: as §1
# ORYSAT (Rice, Tebonnet) = assay: Postemergence herbicidal evaluation; assay type: in vivo, Oryza sativa, (L.) Tebonnet; settings: postemergence
# In short: as §1
# CASOB (Sicklepod) [5] = assay: Preemergence herbicidal evaluation; assay type: in vivo, Cassia obtusifolia; settings: rated 4-5 weeks after treatment
# In short: (§2)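 Scores (0–9) reflect visual comparison with control plants for stand, vigor, malformation, size and chlorosis. Compound was applied to the soil after sowing, before emergence, as an aqueous acetone spray (about 0.0156–0.500 kg/ha), and cups were kept in a greenhouse for 4–5 weeks.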
# GALAP (Galium) [6] = assay: Preemergence herbicidal evaluation; assay type: in vivo, Galium aparine; settings: rated 4-5 weeks after treatment
# In short: as §2
# ZEAMX (Corn, Field) = assay: Preemergence herbicidal evaluation; assay type: in vivo, Zea mays; settings: rated 4-5 weeks after treatment
# In short: as §2
# CYPIR (Rice Flatsedge) = assay: Preemergence weed control under flooded paddy conditions; assay type: in vivo, Cyperus iria; settings: rated 3-4 weeks after treatment
# In short: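 Silt loam, seeds in top 0.5 cm; flood held 1.5-3 cm; test cpd as acetone/water 50/50 into flood water, ~0.0313-0.500 kg/ha a.i.; greenhouse 3-4 wk; visual 0-9 score vs control.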
# CYPSE (Flatsedge) = assay: as above; assay type: in vivo, Cyperus serotinus; settings: rated 3-4 weeks after treatment
# In short: (§3)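 Ratings on a 0-9 visual scale cover stand, vigor, malformation, size, chlorosis and overall appearance relative to a control, taken three to four weeks post-treatment. Application was into flood water over freshly sown silt loam at roughly 0.0313 to 0.500 kg/ha.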
# [7] = system: SAGPY (Arrowhead (Pygmaea)); assay: as above; assay type: in vivo, Sagittaria pygmaea; settings: rated 3-4 weeks after treatment
# In short: as §3
# [8] = rate 0.0156 kg/ha, rating scale 0-9
# [9] = rate 0.0313 kg/ha, rating scale 0-9
# [10] = rate 0.0625 kg/ha, rating scale 0-9
# [11] = rate 0.1250 kg/ha, rating scale 0-9
# [12] = rate 0.2500 kg/ha, rating scale 0-9
smiles,measurement,setting,value
"C=CCN1C(=O)C(CC(=O)NO)SC1=Nc1cc(-n2c(=O)cc(C(F)(F)F)n(C)c2=O)c(F)cc1Cl (centres unmarked) [Compound 161, 3-Allyl-2-{{2-chloro-5-[3,6-dihydro-3-methyl-2,6-dioxo-4-(trifluoromethyl)-1(2H)-pyrimidinyl]-4-fluorophenyl}imino}-4-oxo-5-thiazolidineacetohydroxamic acid]",herbicidal rating AMBEL,"AMBEL (Ragweed, Common); rate 0.0156 kg/ha",1.0
same,herbicidal rating AMBEL,"AMBEL (Ragweed, Common); rate 0.0313 kg/ha",4.0
same,herbicidal rating AMBEL,"AMBEL (Ragweed, Common); rate 0.0625 kg/ha",9.0
same,herbicidal rating AMBEL,"AMBEL (Ragweed, Common); rate 0.1250 kg/ha",9.0
same,herbicidal rating CASOB,CASOB (Sicklepod) [1]; rate 0.0156 kg/ha,0.0
same,herbicidal rating CASOB,CASOB (Sicklepod) [1]; rate 0.0313 kg/ha,1.0
same,herbicidal rating CASOB,CASOB (Sicklepod) [1]; rate 0.0625 kg/ha,1.0
same,herbicidal rating CASOB,CASOB (Sicklepod) [1]; rate 0.1250 kg/ha,3.0
same,herbicidal rating CHEAL,[2]; rate 0.0156 kg/ha,1.0
same,herbicidal rating CHEAL,[2]; rate 0.0313 kg/ha,5.0
same,herbicidal rating CHEAL,[2]; rate 0.0625 kg/ha,7.0
same,herbicidal rating CHEAL,[2]; rate 0.1250 kg/ha,9.0
same,herbicidal rating GALAP,GALAP (Galium) [3]; rate 0.0156 kg/ha,0.0
same,herbicidal rating GALAP,GALAP (Galium) [3]; rate 0.0313 kg/ha,1.0
same,herbicidal rating GALAP,GALAP (Galium) [3]; rate 0.0625 kg/ha,2.0
same,herbicidal rating GALAP,GALAP (Galium) [3]; rate 0.1250 kg/ha,4.0
same,herbicidal rating ECHCG,ECHCG (Barnyardgrass); rate 0.0156 kg/ha,0.0
same,herbicidal rating ECHCG,ECHCG (Barnyardgrass); rate 0.0313 kg/ha,0.0
same,herbicidal rating ECHCG,ECHCG (Barnyardgrass); rate 0.0625 kg/ha,4.0
same,herbicidal rating ECHCG,ECHCG (Barnyardgrass); rate 0.1250 kg/ha,4.0
same,herbicidal rating SETVI,"SETVI (Foxtail, Green); rate 0.0156 kg/ha",0.0
same,herbicidal rating SETVI,"SETVI (Foxtail, Green); rate 0.0313 kg/ha",1.0
same,herbicidal rating SETVI,"SETVI (Foxtail, Green); rate 0.0625 kg/ha",7.0
same,herbicidal rating SETVI,"SETVI (Foxtail, Green); rate 0.1250 kg/ha",7.0
same,herbicidal rating GLXMAW,[4]; rate 0.0156 kg/ha,5.0
same,herbicidal rating GLXMAW,[4]; rate 0.0313 kg/ha,6.5
same,herbicidal rating GLXMAW,[4]; rate 0.0625 kg/ha,7.0
same,herbicidal rating GLXMAW,[4]; rate 0.1250 kg/ha,8.5
same,herbicidal rating ORYSAT,"ORYSAT (Rice, Tebonnet); rate 0.0156 kg/ha",2.5
same,herbicidal rating ORYSAT,"ORYSAT (Rice, Tebonnet); rate 0.0313 kg/ha",3.0
same,herbicidal rating ORYSAT,"ORYSAT (Rice, Tebonnet); rate 0.0625 kg/ha",3.5
same,herbicidal rating ORYSAT,"ORYSAT (Rice, Tebonnet); rate 0.1250 kg/ha",3.5
same,Preemergence herbicidal rating CASOB,CASOB (Sicklepod) [5]; 0.0156 kg/ha,0.0
same,Preemergence herbicidal rating CASOB,CASOB (Sicklepod) [5]; 0.0313 kg/ha,0.0
same,Preemergence herbicidal rating CASOB,CASOB (Sicklepod) [5]; 0.0625 kg/ha,1.0
same,Preemergence herbicidal rating CASOB,CASOB (Sicklepod) [5]; 0.1250 kg/ha,9.0
same,Preemergence herbicidal rating CASOB,CASOB (Sicklepod) [5]; 0.2500 kg/ha,9.0
same,Preemergence herbicidal rating CASOB,CASOB (Sicklepod) [5]; 0.5000 kg/ha,9.0
same,Preemergence herbicidal rating GALAP,GALAP (Galium) [6]; 0.0156 kg/ha,0.0
same,Preemergence herbicidal rating GALAP,GALAP (Galium) [6]; 0.0313 kg/ha,0.0
same,Preemergence herbicidal rating GALAP,GALAP (Galium) [6]; 0.0625 kg/ha,3.0
same,Preemergence herbicidal rating GALAP,GALAP (Galium) [6]; 0.1250 kg/ha,7.0
same,Preemergence herbicidal rating GALAP,GALAP (Galium) [6]; 0.2500 kg/ha,7.0
same,Preemergence herbicidal rating GALAP,GALAP (Galium) [6]; 0.5000 kg/ha,9.0
same,Preemergence herbicidal rating ZEAMX,"ZEAMX (Corn, Field); 0.0156 kg/ha",0.0
same,Preemergence herbicidal rating ZEAMX,"ZEAMX (Corn, Field); 0.0313 kg/ha",0.0
same,Preemergence herbicidal rating ZEAMX,"ZEAMX (Corn, Field); 0.0625 kg/ha",1.0
same,Preemergence herbicidal rating ZEAMX,"ZEAMX (Corn, Field); 0.1250 kg/ha",5.0
same,Preemergence herbicidal rating ZEAMX,"ZEAMX (Corn, Field); 0.2500 kg/ha",6.0
same,Preemergence herbicidal rating ZEAMX,"ZEAMX (Corn, Field); 0.5000 kg/ha",9.0
same,"herbicidal effect rating, CYPIR",CYPIR (Rice Flatsedge); 0.0313 kg/ha,3.0
same,"herbicidal effect rating, CYPIR",CYPIR (Rice Flatsedge); 0.0625 kg/ha,4.0
same,"herbicidal effect rating, CYPIR",CYPIR (Rice Flatsedge); 0.1250 kg/ha,5.0
same,"herbicidal effect rating, CYPIR",CYPIR (Rice Flatsedge); 0.2500 kg/ha,6.0
same,"herbicidal effect rating, CYPSE",CYPSE (Flatsedge); 0.0313 kg/ha,0.0
same,"herbicidal effect rating, CYPSE",CYPSE (Flatsedge); 0.0625 kg/ha,0.0
same,"herbicidal effect rating, CYPSE",CYPSE (Flatsedge); 0.1250 kg/ha,0.0
same,"herbicidal effect rating, CYPSE",CYPSE (Flatsedge); 0.2500 kg/ha,3.0
same,"herbicidal effect rating, SAGPY",[7]; 0.0313 kg/ha,2.0
same,"herbicidal effect rating, SAGPY",[7]; 0.1250 kg/ha,6.0
same,"herbicidal effect rating, SAGPY",[7]; 0.2500 kg/ha,9.0
"Cn1c(C(F)(F)F)cc(=O)n(-c2cc(N=C3SCC(=O)N3Cc3cccc(C(F)(F)F)c3)c(Cl)cc2F)c1=O [Compound 142, 3-{4-Chloro-2-fluoro-5-{{3-[m-(trifluoromethyl)benzyl]-4-oxo-2-thiazolidinylidene}-amino}phenyl}-1-methyl-6-(trifluoromethyl)-2,4(1H,3H)-pyrimidinedione]",herbicidal rating AMBEL,"AMBEL (Ragweed, Common); rate 0.0156 kg/ha",9.0
same,herbicidal rating AMBEL,"AMBEL (Ragweed, Common); rate 0.0313 kg/ha",9.0
same,herbicidal rating AMBEL,"AMBEL (Ragweed, Common); rate 0.0625 kg/ha",9.0
same,herbicidal rating CASOB,CASOB (Sicklepod) [1]; rate 0.0156 kg/ha,0.0
same,herbicidal rating CASOB,CASOB (Sicklepod) [1]; rate 0.0313 kg/ha,1.0
same,herbicidal rating CASOB,CASOB (Sicklepod) [1]; rate 0.0625 kg/ha,3.0
same,herbicidal rating CHEAL,[2]; rate 0.0156 kg/ha,4.0
same,herbicidal rating CHEAL,[2]; rate 0.0313 kg/ha,9.0
same,herbicidal rating CHEAL,[2]; rate 0.0625 kg/ha,9.0
same,herbicidal rating GALAP,GALAP (Galium) [3]; rate 0.0156 kg/ha,0.0
same,herbicidal rating GALAP,GALAP (Galium) [3]; rate 0.0313 kg/ha,1.0
same,herbicidal rating GALAP,GALAP (Galium) [3]; rate 0.0625 kg/ha,1.0
same,herbicidal rating ECHCG,ECHCG (Barnyardgrass); rate 0.0156 kg/ha,1.0
same,herbicidal rating ECHCG,ECHCG (Barnyardgrass); rate 0.0313 kg/ha,1.0
same,herbicidal rating ECHCG,ECHCG (Barnyardgrass); rate 0.0625 kg/ha,2.0
same,herbicidal rating SETVI,"SETVI (Foxtail, Green); rate 0.0156 kg/ha",2.0
same,herbicidal rating SETVI,"SETVI (Foxtail, Green); rate 0.0313 kg/ha",1.0
same,herbicidal rating SETVI,"SETVI (Foxtail, Green); rate 0.0625 kg/ha",3.0
same,herbicidal rating GLXMAW,[4]; rate 0.0156 kg/ha,5.0
same,herbicidal rating GLXMAW,[4]; rate 0.0313 kg/ha,5.0
same,herbicidal rating GLXMAW,[4]; rate 0.0625 kg/ha,5.5
same,herbicidal rating ORYSAT,"ORYSAT (Rice, Tebonnet); rate 0.0156 kg/ha",2.0
same,herbicidal rating ORYSAT,"ORYSAT (Rice, Tebonnet); rate 0.0313 kg/ha",1.5
same,herbicidal rating ORYSAT,"ORYSAT (Rice, Tebonnet); rate 0.0625 kg/ha",2.0
same,Preemergence herbicidal rating CASOB,CASOB (Sicklepod) [5]; [8],1.0
same,Preemergence herbicidal rating CASOB,CASOB (Sicklepod) [5]; [9],0.0
same,Preemergence herbicidal rating CASOB,CASOB (Sicklepod) [5]; [10],2.0
same,Preemergence herbicidal rating CASOB,CASOB (Sicklepod) [5]; [11],1.0
same,Preemergence herbicidal rating CASOB,CASOB (Sicklepod) [5]; [12],0.0
same,Preemergence herbicidal rating GALAP,GALAP (Galium) [6]; [8],0.0
same,Preemergence herbicidal rating GALAP,GALAP (Galium) [6]; [9],0.0
same,Preemergence herbicidal rating GALAP,GALAP (Galium) [6]; [10],0.0
same,Preemergence herbicidal rating GALAP,GALAP (Galium) [6]; [11],0.0
same,Preemergence herbicidal rating GALAP,GALAP (Galium) [6]; [12],9.0
same,Preemergence herbicidal rating ZEAMX,"ZEAMX (Corn, Field); [8]",0.0
same,Preemergence herbicidal rating ZEAMX,"ZEAMX (Corn, Field); [9]",0.0
same,Preemergence herbicidal rating ZEAMX,"ZEAMX (Corn, Field); [10]",0.0
same,Preemergence herbicidal rating ZEAMX,"ZEAMX (Corn, Field); [11]",2.0
same,Preemergence herbicidal rating ZEAMX,"ZEAMX (Corn, Field); [12]",2.0
same,"herbicidal effect rating, CYPIR",CYPIR (Rice Flatsedge); 0.0313 kg/ha,0.0
same,"herbicidal effect rating, CYPIR",CYPIR (Rice Flatsedge); 0.0625 kg/ha,2.0
same,"herbicidal effect rating, CYPIR",CYPIR (Rice Flatsedge); 0.1250 kg/ha,6.0
same,"herbicidal effect rating, CYPIR",CYPIR (Rice Flatsedge); 0.2500 kg/ha,7.0
same,"herbicidal effect rating, CYPSE",CYPSE (Flatsedge); 0.1250 kg/ha,0.0
same,"herbicidal effect rating, CYPSE",CYPSE (Flatsedge); 0.2500 kg/ha,0.0
same,"herbicidal effect rating, SAGPY",[7]; 0.0313 kg/ha,0.0
same,"herbicidal effect rating, SAGPY",[7]; 0.0625 kg/ha,0.0
same,"herbicidal effect rating, SAGPY",[7]; 0.1250 kg/ha,0.0
same,"herbicidal effect rating, SAGPY",[7]; 0.2500 kg/ha,2.0
